Structures can show the parent of a compound that is named as a salt. Where two headings read alike, the source gives them in different places. Bridge positions count the residues as written; N and C are the ends. Square brackets hold non-standard residues; d marks the D form. Peptide text beside a SMILES is read from it. * marks the point of attachment. ξ: configuration not given here. X18 = O=C([C@H]1CC[C@H](O)CC1)*; Thr(3ξ) = CC(O)[C@H](N)C(=O)O; Dab = NCC[C@H](N)C(=O)O; X23 = O=C(CCCN1CCOCC1)*
Experiments:
Assay type in all cases: cell-based
[1] = tested on: Acinetobacter baumannii; assay: MIC, sole activity (no second agent); conditions: for MIC A. baumannii ATCC BAA-747 / MIC A. baumannii NCTC 13424: Table 6A, no second agent, different supplier of Cation-adjusted MHB; for MIC: Acinetobacter baumannii, NCTC13424
Description: (§1) To evaluate the potency and spectrum of the compounds both alone and in combination with another agent, susceptibility testing was performed against up to four strains of each of the four Gram negative pathogens, Escherichia coli, Pseudomonas aeruginosa, Klebsiella pneumoniae and Acinetobacter baumannii.
(§2) The inoculum was prepared by making a direct suspension of isolated colonies (selected from an 18-24 hour Mueller-Hinton agar plate) adjusted to the 0.5 McFarland standard.
(§3) The assays were performed in duplicate.
(§4) In cases where the duplicate values varied by less than 2-fold, the lower of the two values is reported. If a variation of greater than 2-fold was observed, the assay was considered non-valid. Several of the compounds were subjected to multiple tests, and where this is the case, the MIC reflects the modal value obtained.
(§5) MICs were determined as described herein, except that a different supplier of Cation-adjusted MHB was used. […] Values are reported relative to Polymyxin B.

[2] = tested on: Escherichia coli; assay: MIC, sole activity (no second agent); conditions: for MIC: Escherichia coli
Description: as §1, §2, §3, §4, §5

[3] = tested on: Klebsiella pneumoniae; assay: MIC, sole activity (no second agent); conditions: for MIC: Klebsiella pneumoniae
Description: as §1, §2, §3, §4, §5

[4] = tested on: Pseudomonas aeruginosa; assay: MIC, sole activity (no second agent); conditions: for MIC: Pseudomonas aeruginosa, ATCC10145, read-out: MIC P. aeruginosa ATCC 10145
Description: as §1, §2, §3, §4, §5

[5] = tested on: Klebsiella pneumoniae; assay: MIC, compound in combination with a second agent (broth microdilution); conditions: 1:1 (wt:wt) combination with Rifampicin, MIC = total drug concentration; for MIC K. pneumoniae ATCC-BAA-2146: strain ATCC-BAA-2146; for MIC K. pneumoniae CCUG-59348: strain CCUG-59348
Description: as §1
(§6) Ratios of components in a combination, such as 1:1, refers to a weight to weight ratio. The minimum inhibitory concentration (MIC) refers to the total drug concentration (e.g. test compound plus second agent, such as Rifampicin).
as §2, §3, §4
(§7) The minimum inhibitory concentration refers to the total drug concentration (e.g. test compound plus Rifampicin). The compounds are used at equal mass within the combination. The weight refers to the mass of compound as used, for example the Example Compounds are used in their TFA or sulphate salt forms.
(§8) MICs refer to the total drug concentration. Thus, where a 1:1 combination is used, this is the amount of the test compound plus the second agent. For comparison, the MIC values for the second agent alone are also given.

[6] = tested on: Pseudomonas aeruginosa; assay: as above; conditions: 1:1 (wt:wt) combination with Rifampicin; MIC = total drug concentration; strain CCUG 59626
Description: as §1, §6, §2, §3, §4, §7, §8

[7] = Table 6A, no second agent, different supplier of Cation-adjusted MHB
[8] = in the absence of Rifampicin, strain ATCC25922
[9] = in the absence of Rifampicin, strain ATCC 4352
[10] = in the absence of Rifampicin, strain ATCC27853

Row | Compound | MIC A. baumannii ATCC BAA-747 [1] [micrograms/mL] | MIC A. baumannii NCTC 13424 [1] [micrograms/mL] | MIC E. coli NCTC 13441 [2, 7] [micrograms/mL] | MIC K. pneumoniae ATCC 4352 [3, 7] [micrograms/mL] | MIC K. pneumoniae ATCC BAA-2146 [3, 7] [micrograms/mL] | MIC P. aeruginosa ATCC 27853 [4, 7] [micrograms/mL] | MIC P. aeruginosa CCUG 59347 [4, 7] [micrograms/mL] | MIC E. coli ATCC25922 [2, 7] [micrograms/mL] | also measured
1 | 2-(1- (Aminomethyl)cyclohexyl) ethanoyl Polymyxin B nonapeptide [Example A30] | 8 | 8 | 1 | 0.5 | 1 | 0.5 | 1 | – | –
2 | 2-(1- Hydroxycyclohexyl)ethanoyl polymyxin B nonapeptide [Example A15] | >8 | >8 | 8 | 4 | – | 4 | 8 | 8 | –
3 | 2-(R)-(2-amino-2- cyclohexyl)ethanoyl polymyxin B nonapeptide [Example A38] | 1 | 2 | 2 | 0.5 | 2 | 0.5 | 1 | 0.5 | –
4 | 2-(RS)-2-aminooctyl polymyxin B decapeptide [Example A5] | 1 | 2 | – | 0.5 | 0.5 | 0.25 | 0.5 | 0.5 | –
5 | 2-Aminomethylbenzoyl polymyxin B nonapeptide [Example A31] | >8 | >8 | 2 | 2 | >8 | 0.5 | 2 | 8 | –
6 | 3-(R)-3-Amino-5- methylhexanoyl polymyxin B nonapeptide [Example A45] | >8 | >8 | 2 | 1 | – | 0.5 | 1 | 2 | –
7 | 3-(RS)-3-amino octanoyl polymyxin B nonapeptide. Isomer 1 [Example A32] | 2 | 2 | 0.5 | 0.5 | 0.25 | 0.5 | 1 | 0.5 | –
8 | 3-Methylpiperidine-3- carbonyl polymyxin B nonapeptide [Example A39] | >8 | >8 | 8 | 8 | >8 | 2 | 4 | >8 | –
9 | 4-[3(R,S)-3-Amino-3- cyclohexanepropanamido] piperidine-4-carbonyl polymyxin B nonapeptide [Example A28] | >8 | >8 | >8 | >8 | >8 | 2 | 4 | >8 | –
10 | 5-Hydroxypiperidine-3- carbonyl polymyxin B nonapeptide [Example A50] | – | 2 | 2 | 0.25 | 2 | 1 | 2 | 1 | –
11 | CC[C@H]1OC(=O)[C@H](C)[C@@H](O[C@H]2C[C@@](C)(OC)[C@@H](O)[C@H](C)O2)[C@H](C)[C@@H](O[C@@H]2O[C@H](C)C[C@H](N(C)C)[C@H]2O)[C@](C)(O)C[C@@H](C)CN(C)[C@H](C)[C@@H](O)[C@]1(C)O [Azithromycin, reference compound] | – | – | – | – | – | – | – | – | MIC ([1]; Table 7F, A. baumannii NCTC 13424, second agent none): 8 µg/mL; MIC ([2]; NCTC13441, Table 7F, E. coli NCTC 13441, second agent none, read-out: MIC E. coli NCTC 13441): > 32 µg/mL; MIC ([2]; Table 7F, E. coli ATCC25922, second agent none, read-out: MIC E. coli ATCC25922): 1 µg/mL; MIC ([3]; CCUG59349, Table 7F, K. pneumoniae CCUG 59349, second agent none, read-out: MIC K. pneumoniae CCUG 59349): > 32 µg/mL; MIC ([3]; Table 7F, K. pneumoniae ATCC4352, second agent none, read-out: MIC K. pneumoniae ATCC4352): 0.25 µg/mL; MIC ([4]; Table 7F, P. aeruginosa ATCC 10145, second agent none): 32 µg/mL
12 | C[C@H]1[C@H](NC(=O)/C(=N\OC(C)(C)C(=O)O)c2csc(N)n2)C(=O)N1S(=O)(=O)O [Aztreonam, reference compound] | – | – | – | – | – | – | – | – | MIC ([1]; Second Agent none (Table 7E), read-out: MIC A. baumannii NCTC 13424): 8 µg/mL; MIC ([2]; ATCC25922, Second Agent none (Table 7E), read-out: MIC E. coli ATCC25922): ≤ 0.06 µg/mL; MIC ([2]; NCTC13441, Second Agent none (Table 7E), read-out: MIC E. coli NCTC 13441): > 32 µg/mL; MIC ([3]; ATCC4352, Second Agent none (Table 7E), read-out: MIC K. pneumoniae ATCC4352): ≤ 0.06 µg/mL; MIC ([3]; CCUG59349, Second Agent none (Table 7E), read-out: MIC K. pneumoniae CCUG 59349): > 32 µg/mL; MIC ([4]; Second Agent none (Table 7E)): 4 µg/mL
13 | CC(C)C[C@@H]1NC(=O)[C@@H](Cc2ccccc2)NC(=O)[C@H](CCN)NC(=O)[C@@H](NC(=O)[C@H](CCN)NC(=O)[C@@H](NC(=O)CCCN2CCOCC2)C(C)O)CCNC(=O)[C@H](C(C)O)NC(=O)[C@H](CCN)NC(=O)[C@H](CCN)NC1=O (stereo partly shown) [Example 14, 4- Morpholinylbutanoyl polymyxin B nonapeptide, trifluoroacetate salt] (X23-[Thr(3ξ)][Dab][Dab][Dab][dF]L[Dab][Dab][Thr(3ξ)]; lactam 3-C) | – | – | – | – | – | – | – | – | MIC K. pneumoniae ATCC-BAA-2146 [5]: 2 micrograms/mL; MIC K. pneumoniae CCUG-59348 [5]: 16 micrograms/mL; MIC P. aeruginosa CCUG 59626 [6]: 0.5 micrograms/mL; MIC E. coli ATCC25922 [2, 8]: 4 micrograms/mL; MIC K. pneumoniae ATCC 4352 [3, 9]: >32 micrograms/mL; MIC P. aeruginosa ATCC 27853 [4, 10]: 1 micrograms/mL
14 | CC(C)C[C@@H]1NC(=O)[C@@H](Cc2ccccc2)NC(=O)[C@H](CCN)NC(=O)[C@@H](NC(=O)[C@H](CCN)NC(=O)[C@@H](NC(=O)[C@H]2CC[C@H](O)CC2)C(C)O)CCNC(=O)[C@H](C(C)O)NC(=O)[C@H](CCN)NC(=O)[C@H](CCN)NC1=O (stereo partly drawn) [Example 25, trans-4-hydroxycyclohexane carbonyl polymyxin B nonapeptide] (X18-[Thr(3ξ)][Dab][Dab][Dab][dF]L[Dab][Dab][Thr(3ξ)]; lactam 3-C) | – | – | – | – | – | – | – | – | MIC K. pneumoniae ATCC-BAA-2146 [5]: 1 micrograms/mL; MIC K. pneumoniae CCUG-59348 [5]: 8 micrograms/mL; MIC K. pneumoniae NCTC 13438 ([5]; strain NCTC 13438): 2 micrograms/mL; MIC P. aeruginosa CCUG 59626 [6]: 0.5 micrograms/mL; MIC E. coli ATCC25922 [2, 8]: 8 micrograms/mL; MIC K. pneumoniae ATCC 4352 [3, 9]: 4 micrograms/mL; MIC P. aeruginosa ATCC 27853 [4, 10]: 0.125 micrograms/mL

Source: patent publication US10407467B2, “Polymyxin derivatives and their use in combination therapy together with different antibiotics” (priority 2013, dated 2019)
